Data reported in PubChem BioAssay AID1195 (EPA DSSTox, 2008).

System: human maximum recommended daily dose, FDA database
Experiment: DSSTox (FDAMDD) FDA Maximum (Recommended) Daily Dose Database
Settings: stronger effect = lower value
Method in brief: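 MRDD values come from clinical trials with daily oral dosing, usually for 3–12 months, for the average adult, in mg/day converted to mg/kg-bw/day assuming 60 kg. Antineoplastic mg/m2 doses are divided by 37. Activity score maps log10(1/MRDD mmol) onto 1–100.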

[1] = TherapeuticCategory: skeletal muscle relaxant
[2] = TherapeuticCategory: antiemetic
[3] = TherapeuticCategory: antibacterial
[4] = TherapeuticCategory: sedative, hypnotic
[5] = TherapeuticCategory: antidiabetic

Q: For `CC(=O)CC(c1ccccc1)c1c(O)c2ccccc2oc1=O` (stereo not given), which maximum recommended daily dose (mmol/kg-bw/day) (TherapeuticCategory: anticoagulant) is on record?
A: 0.000542

Q: With `C[N+](C)(C)CCOC(=O)CCC(=O)OCC[N+](C)(C)C` as the compound, how does the maximum recommended daily dose (mmol/kg-bw/day) [1] read?
A: 0.00304

Q: How did the maximum recommended daily dose (mmol/kg-bw/day) (TherapeuticCategory: diagnostic aid) turn out when `CC(=O)Nc1c(I)c(C(=O)N[C@H]2C(O)O[C@H](CO)[C@@H](O)[C@@H]2O)c(I)c(N(C)C(C)=O)c1I` (stereo not given in full) was run?
A: 0.132

Q: How did the maximum recommended daily dose (mmol/kg-bw/day) [2] turn out when `CC(C)(C)c1ccc(CN2CCN(C(c3ccccc3)c3ccc(Cl)cc3)CC2)cc1` (stereo not given) was run?
A: 0.00577

Q: `Cn1nnnc1SCC1=C(C(=O)O)N2C(=O)[C@@H](NC(=O)[C@H](OC=O)c3ccccc3)[C@H]2SC1` was tested. Which maximum recommended daily dose (mmol/kg-bw/day) [3] did it give?
A: 0.195

Q: `O=C1CCC(N2C(=O)c3ccccc3C2=O)C(=O)N1` (stereo not given) was tested. Which maximum recommended daily dose (mmol/kg-bw/day) [4] did it give?
A: 0.0258

Q: `O=C(Cc1cccs1)N[C@@H]1C(=O)N2C(C(=O)[O-])=C(C[n+]3ccccc3)CS[C@H]12` was tested. Which maximum recommended daily dose (mmol/kg-bw/day) [3] did it give?
A: 0.161

Q: How did the maximum recommended daily dose (mmol/kg-bw/day) [5] turn out when `CC(=O)c1ccc(S(=O)(=O)NC(=O)NC2CCCCC2)cc1` was run?
A: 0.0771

Q: `COc1cc(C(=O)NCc2ccc(OCCN(C)C)cc2)cc(OC)c1OC` was tested. Which maximum recommended daily dose (mmol/kg-bw/day) [2] did it give?
A: 0.043

Q: How did the maximum recommended daily dose (mmol/kg-bw/day) [3] turn out when `NCc1ccccc1CC(=O)N[C@@H]1C(=O)N2C(C(=O)O)=C(CSc3nnnn3CC(=O)O)CS[C@H]12` was run?
A: 0.0641

Q: With `Clc1ccc2nsnc2c1NC1=NCCN1` as the compound, how does the maximum recommended daily dose (mmol/kg-bw/day) [1] read?
A: 0.00236

Q: With `Cc1ccnc(NS(=O)(=O)c2ccc(N)cc2)n1` as the compound, how does the maximum recommended daily dose (mmol/kg-bw/day) [3] read?
A: 0.252

Q: With `CN1CC[C@]23CCCC[C@H]2[C@H]1Cc1ccc(O)cc13` as the compound, how does the maximum recommended daily dose (mmol/kg-bw/day) (TherapeuticCategory: narcotic analgesic) read?
A: 0.000583

Q: Which maximum recommended daily dose (mmol/kg-bw/day) (TherapeuticCategory: anorexic) does the source give for `CC1C(c2ccccc2)OCCN1C` (stereo not given) here?
A: 0.0183

Q: How did the maximum recommended daily dose (mmol/kg-bw/day) [4] turn out when `Cc1nnc2n1-c1sc(Br)cc1C(c1ccccc1Cl)=NC2` was run?
A: 1.06e-05

Q: `CC1(C)S[C@@H]2[C@H](NC(=O)[C@H](N)c3ccccc3)C(=O)N2[C@H]1C(=O)O` was tested. Which maximum recommended daily dose (mmol/kg-bw/day) [3] did it give?
A: 0.167

Q: For `CC(C)CC1Nc2cc(Cl)c(S(N)(=O)=O)cc2S(=O)(=O)N1` (stereo not given), which maximum recommended daily dose (mmol/kg-bw/day) (TherapeuticCategory: diuretic, antihypertensive) is on record?
A: 0.000707

Q: For `C=CCN1CC[C@]23c4c5ccc(O)c4O[C@H]2C(=O)CC[C@@]3(O)[C@H]1C5`, which maximum recommended daily dose (mmol/kg-bw/day) (TherapeuticCategory: narcotic antagonist) is on record?
A: 0.000305

Q: `CC(=O)Oc1ccc(C(=C2CCCCC2)c2ccc(OC(C)=O)cc2)cc1` was tested. Which maximum recommended daily dose (mmol/kg-bw/day) (TherapeuticCategory: gonad stimulating) did it give?
A: 0.0183

Q: For `COCC1=C(C(=O)O)N2C(=O)[C@@H](NC(=O)/C(=N\OC)c3csc(N)n3)[C@H]2SC1`, which maximum recommended daily dose (mmol/kg-bw/day) [3] is on record?
A: 0.0234

Q: With `CN(C)CCCN1c2ccccc2C(C)(C)c2ccccc21` as the compound, how does the maximum recommended daily dose (mmol/kg-bw/day) (TherapeuticCategory: antidepressant) read?
A: 0.034

Q: With `CC(C)(C#N)c1cc(Cn2cncn2)cc(C(C)(C)C#N)c1` as the compound, how does the maximum recommended daily dose (mmol/kg-bw/day) (TherapeuticCategory: androgen) read?
A: 5.69e-05

Q: Which maximum recommended daily dose (mmol/kg-bw/day) (TherapeuticCategory: anti inflammatory) does the source give for `CCN(CC)CCc1nc(-c2ccccc2)no1` here?
A: 0.0136

Q: For `CCCCC[C@H](O)/C=C/[C@H]1[C@H](O)CC(=O)[C@@H]1C/C=C\CCCC(=O)O`, which maximum recommended daily dose (mmol/kg-bw/day) (TherapeuticCategory: oxytocic, abortifacient) is on record?
A: 7.09e-05

Q: How did the maximum recommended daily dose (mmol/kg-bw/day) (TherapeuticCategory: antineoplastic) turn out when `C[C@@H]1C[C@@]2(C)[C@@H](CC[C@@H]3[C@@H]2CC[C@]2(C)[C@@H](O)CC[C@@H]32)CC1=O` was run?
A: 0.00549

Q: How did the maximum recommended daily dose (mmol/kg-bw/day) (TherapeuticCategory: anabolic) turn out when `C[C@H]1CCC[C@H](O)CCCCCc2cc(O)cc(O)c2C(=O)O1` was run?
A: 1.55e-06

Q: Which maximum recommended daily dose (mmol/kg-bw/day) (TherapeuticCategory: antineoplastic, antirheumatic) does the source give for `CN(Cc1cnc2nc(N)nc(N)c2n1)c1ccc(C(=O)N[C@@H](CCC(=O)O)C(=O)O)cc1` here?
A: 0.0011

Q: `O=C1CN2CCOC2(c2ccccc2Cl)c2cc(Cl)ccc2N1` (stereo not given) was tested. Which maximum recommended daily dose (mmol/kg-bw/day) (TherapeuticCategory: anxiolytic) did it give?
A: 0.000573

Q: Which maximum recommended daily dose (mmol/kg-bw/day) [3] does the source give for `CO[C@@]1(NC(=O)Cc2cccs2)C(=O)N2C(C(=O)O)=C(COC(N)=O)CS[C@@H]21` here?
A: 0.468

Q: How did the maximum recommended daily dose (mmol/kg-bw/day) [5] turn out when `Cc1ccc(S(=O)(=O)NC(=O)NN2CCCCCC2)cc1` was run?
A: 0.0536
